Measurements from patent publication US4333930A, “Orthoarylideneaminophenethylamines and pharmaceutical compositions” (priority 1980, dated 1982).
Like-named read-outs stand apart in the source and are kept apart here.

Assays:
[1] = Oral toxicity (mortality) in the mouse, Table 1; format: in vivo; conditions: mouse, in vivo, po, Swiss mice, 14 days
Experimental: (§1) The mortality percentages caused by the products of the present invention administered orally to Swiss mice are shown in Table 1. The animals, free of specific pathological organism were housed in an air conditioned room from 24 to 48 hours before the start of the experiments. They were divided up into lots of 5 males and 5 females. With the animals unfed for 24 hours, the substances were administered intragastrically in a base of 6% gum arabic in a volume equal to 0.1 ml for 10 g of animal weight. The mortality was recorded at 14 days.
(§2) % of mortality as a function of the dose

[2] = tested on: phenylbenzoquinone (PBQ); experiment: Analgesic activity using phenylbenzoquinone (PBQ) as noxious agent, Table 2; format: in vivo, male Swiss mouse; conditions: Mus musculus; for inhibition in vivo at 50 mg/kg: read-out: % of analgesic activity, 50 mg/kg, male Swiss mouse, PBQ; for inhibition in vivo at 100 mg/kg: read-out: % of analgesic activity, 100 mg/kg, male Swiss mouse, PBQ; for inhibition in vivo at 200 mg/kg: read-out: % of analgesic activity, 200 mg/kg, male Swiss mouse, PBQ
Experimental: The analgesic activity was determined with the male Swiss mouse using phenylbenzoquinone (PBQ) (a variation of the method of Siegmund et al, Proc. Soc. Exp. Med., […], 95, 729-31) as the noxious agent. Twenty-eightminutes after having administered the test products in a suspension in a 6% gum base, the PBQ solution was injected. The mice were then observed ca. 5 mn. for the next five minutes.
% of analgesic activity as a function of
the dose expressed in mg/kg

[3] = tested on: number of escapes the animal made in 5 minutes; experiment: Escape test, Table 3; format: in vivo, mouse; conditions: 5 min, read-out: % of activity (variation of the number of escapes)
Description: The products of the invention were always administered orally in 6% gum base.
The notation NS signifies that the difference between the results noted for the product and the results noted for the excipient alone is not significant at the threshold 0.05 according to the Student t Test.

[4] = tested on: number of displacements of the animal; experiment: Four plates test (anxiolytic activity), Table 5; format: in vivo; conditions: oral, mouse
Description: (§3) The psychotropic profile of the present invention products has been characterized with the animals in numerous tests some of whose results are shown hereinafter. The products of the invention were always administered orally in 6% gum base.
A certain number of products manifest an anxiolytic activity evidenced in the test with the four plates with the mouse (Table 5).
% of increase in the number of displacements of the
animal as a function of the dose expressed in mg/kg

[5] = tested on: ptosis induced by reserpine; experiment: Antagonism of ptosis induced by reserpine, Table 6; format: in vivo; conditions: read-out: % of inhibition of ptosis induced by reserpine
Description: as §3
(§4) Certain tests made it possible to show antidepressive activities. These are tests of antagonism to the effects of reserpine, oxotremorine (according to Everett G. M. et al, Science, 1956, 124, 79 and Levy J. et al, Therapie 1965, 20, 265) and to despair (according to Porsolt P. D. et al, Eur. J. Pharmacol., 1978, 47, 379-91).
% of inhibition of ptosis induced by reserpine
as a function of the dose administered orally

[6] = tested on: trembling induced by oxotremorine; experiment: Antagonism of trembling induced by oxotremorine, Table 7; format: in vivo; conditions: read-out: % of inhibition of trembling induced by oxotremorine
Description: as §3, §4
% of inhibition of trembling induced by
oxotremorine as a function of the dose
(§5) administered expressed in mg/kg

[7] = tested on: despair; experiment: Test of despair (Porsolt), Table 8; format: in vivo; conditions: oral
Description: as §3, §4
Test of despair: % of antagonism as a function
of the dose administered orally and expressed

[8] = tested on: salivation induced by pilocarpine; experiment: Inhibition of salivation induced by pilocarpine (anticholinergic activity), Table 9; format: in vivo; conditions: oral
Description: as §3
Certain products manifest an anticholinergic activity evidenced in the inhibition test of salivation induced by pilocarpine (Table 9).
% of inhibition of salivation induced by
pilocarpine as a function of the dose
as §5

[9] = tested on: Swiss mice; experiment: Oral toxicity (mortality) in the mouse, Table 1; format: in vivo; conditions: 1000 mg/kg, 14 days, 20160 min
Experimental: as §1, §2

[10] = tested on: stereotype induced by apomorphine; experiment: Antagonism of the stereotype induced by apomorphine, Table 4; format: in vivo
Description: as §3
% of activity vis-a-vis the stereotype
induced by apomorphine as a function of the
administered dose expressed in mg/kg

[11] = tested on: catalepsy; experiment: Catalepsy; format: in vivo; conditions: 400 and 600 mg/kg
[12] = 5 mg/kg, oral, mouse, 5 minutes
[13] = 25 mg/kg, oral, mouse, 5 minutes
[14] = 50 mg/kg, oral, mouse, 5 minutes
[15] = 100 mg/kg, oral, mouse, 5 minutes
[16] = 200 mg/kg, oral, mouse, 5 minutes

Structure (SMILES) | mortality at 336 h ([1]; 1500 mg/kg) [%] | mortality at 336 h ([1]; 2000 mg/kg) [%] | inhibition in vivo at 50 mg/kg [2] [%] | inhibition in vivo at 100 mg/kg [2] [%] | inhibition in vivo at 200 mg/kg [2] [%] | change in vivo at 5 mg/kg [3, 12] [%] | change in vivo at 25 mg/kg [3, 13] [%] | change in vivo at 50 mg/kg [3, 14] [%] | change in vivo at 100 mg/kg [3, 15] [%] | change in vivo at 200 mg/kg [3, 16] [%] | % of increase in the number of displacements of the animal ([4]; 3 mg/kg) | % of increase in the number of displacements of the animal ([4]; 5 mg/kg) | % of increase in the number of displacements of the animal ([4]; 10 mg/kg) | change in vivo at 50 mg/kg ([6]; po) [%] | change in vivo at 100 mg/kg ([6]; po) [%] | change in vivo at 200 mg/kg ([6]; po) [%] | Test of despair: % of antagonism ([7]; 100 mg/kg) [%] | Test of despair: % of antagonism ([7]; 200 mg/kg) [%] | % of inhibition of salivation induced by pilocarpine ([8]; 200 mg/kg) [%] | mortality at 336 h ([1]; 1000 mg/kg) [%] | further results
CN(C)CCc1ccccc1N=Cc1cccnc1 [COR 01 184] | 0 | 30 | 34 | 44 | 55 | -34 | -23 | -34 | -47 | -46 | +73% | +56% | +61% | 0 | -22 | -17 | -20 | -18 | -23 |  | change in vivo at 10 mg/kg ([3]; 10 mg/kg, oral, mouse, 5 minutes): -26%; % of increase in the number of displacements of the animal ([4]; 1.5 mg/kg): +89%; change in vivo at 50 mg/kg ([5]; po): -13%; change in vivo at 100 mg/kg ([5]; po): -39%; change in vivo at 200 mg/kg ([5]; po): -34%; change in vivo at 25 mg/kg ([6]; po): -20%
CN(C)CCc1cc2c(cc1N=Cc1cccnc1)OCO2 [COR 01 170, 6-dimethylaminoethyl N-(pyridylidene-3)-1,3-benzodioxole-5-ylamine] | 100 |  |  | 30 | 39 |  |  |  |  |  |  |  |  | -40 | -50 | -78 | -39 | -33 | -57 |  | % of mortality [9]: 0%; change in vivo at 100 mg/kg ([3]; Mus musculus, po): -32%; change in vivo at 200 mg/kg ([3]; Mus musculus, po): -59%; % of increase in the number of displacements of the animal ([4]; 25 mg/kg): +18%; % of increase in the number of displacements of the animal ([4]; 40 mg/kg): +57%; % of increase in the number of displacements of the animal ([4]; 50 mg/kg): +36%; % of increase in the number of displacements of the animal ([4]; 60 mg/kg): +69%; % of increase in the number of displacements of the animal ([4]; 75 mg/kg): +72%; Test of despair: % of antagonism ([7]; 50 mg/kg): -39%; % of inhibition of salivation induced by pilocarpine ([8]; 100 mg/kg): -18%
C(=Nc1cc2c(cc1CCN1CCCC1)OCO2)c1cccnc1 [COR 01 173] |  |  |  |  |  | -33 | -13 | -29 | -50 | -90 |  |  | +30% |  |  |  | -41 | -53 | -76 | 30 | mortality at 336 h ([1]; 500 mg/kg): 0%; change in vivo at 75 mg/kg ([3]; 75 mg/kg, oral, mouse, 5 minutes): -26%; change in vivo at 150 mg/kg ([3]; 150 mg/kg, oral, mouse, 5 minutes): -55%; % of increase in the number of displacements of the animal ([4]; 20 mg/kg): +47%; % of increase in the number of displacements of the animal ([4]; 50 mg/kg): +60%; % of increase in the number of displacements of the animal ([4]; 75 mg/kg): +82%; change in vivo at 50 mg/kg ([5]; 50 mg/kg, oral): -12%; change in vivo at 75 mg/kg ([5]; 75 mg/kg, oral): -21%; change in vivo at 100 mg/kg ([5]; 100 mg/kg, oral): -23%; change in vivo at 25 mg/kg ([6]; 25 mg/kg, oral): -20%; change in vivo at 50 mg/kg ([6]; 50 mg/kg, oral): -20%; change in vivo at 75 mg/kg ([6]; 75 mg/kg, oral): -40%; change in vivo at 100 mg/kg ([6]; 100 mg/kg, oral): -60%; change in vivo at 150 mg/kg ([6]; 150 mg/kg, oral): -70%; Test of despair: % of antagonism ([7]; 50 mg/kg): -18%; % of inhibition of salivation induced by pilocarpine ([8]; 75 mg/kg): -39%; % of inhibition of salivation induced by pilocarpine ([8]; 100 mg/kg): -48%
CN(C)CCc1cc2c(cc1N=Cc1ccc[n+]([O-])c1)OCO2 [COR 01 203] | 10 | 40 | 0 | 36 | 47 |  |  |  |  |  |  |  |  | -70 | -50 | -20 |  |  | -30 | 0 | change in vivo at 100 mg/kg ([5]; po): -33%; change in vivo at 200 mg/kg ([5]; po): -27%; % of inhibition of salivation induced by pilocarpine ([8]; 50 mg/kg): -32%
CN(C)CCc1cc2c(cc1N=CC=Cc1ccccc1)OCO2 [COR 01 176] |  |  |  | 23 | 39 |  |  |  |  |  | +101% | +117% | +72% | -40 | -50 | -20 |  |  |  | 0 | change in vivo at 0.5 mg/kg ([3]; Mus musculus, po): -29%; change in vivo at 1 mg/kg ([3]; Mus musculus, po): -40%; change in vivo at 3 mg/kg ([3]; Mus musculus, po): -39%; change in vivo at 5 mg/kg ([3]; Mus musculus, po): -33%; change in vivo at 25 mg/kg ([3]; Mus musculus, po): -32%; change in vivo at 50 mg/kg ([3]; Mus musculus, po): -37%; change in vivo at 100 mg/kg ([3]; Mus musculus, po): -33%; change in vivo at 200 mg/kg ([3]; Mus musculus, po): -43%; % of activity vis-a-vis the stereotype induced by apomorphine ([10]; 200 mg/kg, oral): -64%; antagonism vis-a-vis the stereotype with apomorphine ([10]; in words): manifest an antagonism; % of increase in the number of displacements of the animal ([4]; 20 mg/kg): +72%; % of increase in the number of displacements of the animal ([4]; 25 mg/kg): +66%; catalepsy [11]: slight catalepsy
